Measured values from BigSolDB 2.1.

Nc1cc(Cl)nnc1Cl
Conditions	solubility (mole fraction)
in 1,4-dioxane, 289.15 K	0.00294
in 1,4-dioxane, 293.65 K	0.00365
in 1,4-dioxane, 298.15 K	0.00427
in 1,4-dioxane, 303.15 K	0.00556
in 1,4-dioxane, 308.15 K	0.0066
in 1,4-dioxane, 313.15 K	0.00811
in 1,4-dioxane, 318.15 K	0.00982
in 1,4-dioxane, 323.15 K	0.0121
in THF, 290.05 K	0.0443
in THF, 295.15 K	0.0484
in THF, 299.15 K	0.0517
in THF, 303.15 K	0.0556
in THF, 305.15 K	0.057
in THF, 308.15 K	0.0604
in THF, 313.65 K	0.0648
in THF, 318.15 K	0.0688
in THF, 323.15 K	0.0752
in acetone, 295.65 K	0.0244
in acetone, 298.15 K	0.0258
in acetone, 300.65 K	0.0276
in acetone, 303.15 K	0.0293
in acetone, 305.65 K	0.0311
in acetone, 308.15 K	0.0327
in acetone, 310.65 K	0.0342
in acetone, 313.15 K	0.036
in acetone, 315.65 K	0.0377
in acetone, 318.15 K	0.0393
in acetone, 320.65 K	0.041
in acetone, 323.15 K	0.0427
in dichloromethane, 295.15 K	7.41e-05
in dichloromethane, 297.15 K	0.000111
in dichloromethane, 299.15 K	0.000174
in dichloromethane, 301.15 K	0.000262
in dichloromethane, 303.15 K	0.000387
in dichloromethane, 305.15 K	0.000543
in dichloromethane, 307.15 K	0.000811
in dichloromethane, 309.15 K	0.00117
in ethyl acetate, 295.65 K	0.00111
in ethyl acetate, 298.15 K	0.00134
in ethyl acetate, 300.65 K	0.00159
in ethyl acetate, 303.15 K	0.00192
in ethyl acetate, 305.65 K	0.00235
in ethyl acetate, 308.15 K	0.00303
in ethyl acetate, 310.65 K	0.00371
in ethyl acetate, 313.15 K	0.0049
in ethyl acetate, 315.65 K	0.00577
in methanol, 295.65 K	0.0142
in methanol, 298.15 K	0.0153
in methanol, 300.65 K	0.0161
in methanol, 303.15 K	0.0169
in methanol, 305.65 K	0.0178
in methanol, 308.15 K	0.0189
in methanol, 310.65 K	0.0201
in methanol, 313.15 K	0.0214
in methanol, 315.65 K	0.0229
